Assay results as given in patent publication US20190292494A1, “STABILIZATION OF ENZYMES IN COMPOSITIONS” (BASF SE, priority 2016, published 2019).
“Also recorded” adds a separate entry of the source. Read-outs that look alike come from different tables or passages of the source.

Experiments:
Format in all cases: biochemical
[1] = molecular target: protease according to SEQ ID No: 1 (Lederbergia lenta, UniProt P29599, R99E); assay: Storage stability of protease at 45° C. with diol alone (proteolytic activity, Suc-AAPF-pNA); conditions: no boron compound; for stabilization of protease by diol alone during storage (in words): storage at 45° C., 20-50% w/w diol
Method: (§1) Proteolytic activity of proteases has been measured using succinyl-Ala-Ala-Pro-Phe-p-nitroanilide (Suc-AAPF-pNA, short AAPF) as substrate, wherein pNA is cleaved from the substrate molecule by proteolytic cleavage, resulting in release of yellow color of free pNA which was quantified by measuring OD405.
To test the effect of diol alone towards the storage stability of proteases, a protease according to SEQ ID No: 1 was stored at 45° C. with varying concentrations of Propane-1,2-diol and Pentane-1,2-diol as indicated in Table B. 4% active protease according to SEQ ID No: 1 was present before storage for the assessment of its changes in proteolytic activity during storage.
Proteolytic activity was measured in the presence of 4.8 mM Sus-AAPF-pNa. As buffering system 50 mM phosphate buffer was used (pH 7.5). Before storage (time=0), the protease activity measured was set 100%.

[2] = molecular target: T1, protease according SEQ ID No: 1 (Lederbergia lenta, UniProt P29599, R99E); conditions: for protease activity: 2.3% (w/w) diol, 4.4 μM 4-FPBA, 4.8 mM Suc-AAPF-pNA, 16 nM protease, pH 7.5, activity with 4-FPBA only = 100%
Method: as §1
(§2) If not indicated otherwise, enzymatic activity was measured at 30° C.
50 mM phosphate buffer (pH 7.5), 4.4 μM 4-FPBA, 4.8 mM Suc-AAPF-pNA, and 16 nM protease according SEQ ID No: 1 with 2.3% w/w diol or without diol.
The protease activity was measured in presence of the Suc-AAPF-pNA substrate and the 4-FPBA only, which gives the 100% value in Table A.
The protease activity was also measured in the presence of AAPF-pNA substrate, 4-FPBA and 2.3% diol.

[3] = molecular target: T1, protease according SEQ ID No: 1; conditions: for protease activity: activity without BBA and diol = 100%
Method: as §1, §2
50 mM phosphate buffer (pH 7.5), 137 μM BBA, 4.8 mM Suc-AAPF-pNA, and 16 nM protease according SEQ ID No: 1 with 135 mM diol or without diol.
The protease activity was measured in presence of the Suc-AAPF-pNA substrate and in the absence of BBA and diol, which gives the 100% value in Table B.
The protease activity was measured in presence of the Suc-AAPF-pNA substrate and BBA, which gives the stabilization of protease by BBA—see Table C-I.
The protease activity was then measured in presence of the Suc-AAPF-pNA substrate and diol (without BBA), which gives the stabilization of protease by diol—see Table C-II.
The protease activity was then measured in presence of the Suc-AAPF-pNA substrate and BBA and diol, which gives the stabilization of protease by BBA and diol—see Table C-III.

[4] = molecular target: T1, protease according SEQ ID No: 1; assay: Mixtures of diols with 4-FPBA: protease activity (Suc-AAPF-pNA)
Method: as §1, §2
50 mM phosphate buffer (pH 7.5), 4.4 μM 4-FPBA, 4.8 mM Suc-AAPF-pNA, and 16 nM protease according SEQ ID No: 1 with one or two diols.
The protease activity was measured in presence of the Suc-AAPF-pNA substrate and 4-FPBA and one or two diols, which gives the stabilization of protease by 4-FPBA and one or two diols—see Table D.
The protease activity in presence of the Suc-AAPF-pNA substrate and 4-FPBA only is set 100%.

T1 sequence (P29599 whole entry R99E): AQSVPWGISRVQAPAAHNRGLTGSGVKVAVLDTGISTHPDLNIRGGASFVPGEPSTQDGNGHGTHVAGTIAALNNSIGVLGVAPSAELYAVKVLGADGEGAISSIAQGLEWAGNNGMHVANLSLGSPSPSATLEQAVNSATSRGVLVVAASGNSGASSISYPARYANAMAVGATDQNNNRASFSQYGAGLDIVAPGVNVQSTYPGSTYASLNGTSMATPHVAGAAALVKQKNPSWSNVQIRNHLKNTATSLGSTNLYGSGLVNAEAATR
protease according to SEQ ID No: 1, sequence (P29599 whole entry R99E): as above

For `CC(O)CO` (centres unmarked) [Propane-1,2-diol, propane-1,2-diol], the “proteolytic activity before and after storage” value ([1]; 20% w/w diol, 1 day at 45° C.) was 82%, the “proteolytic activity before and after storage” value ([1]; 20% w/w diol, 3 days at 45° C.) was 64% and the “proteolytic activity before and after storage” value ([1]; 20% w/w diol, 7 days at 45° C.) was 46%. The “proteolytic activity before and after storage” value ([1]; 20% w/w diol, 14 days at 45° C.) was 30%, the “proteolytic activity before and after storage” value ([1]; 20% w/w diol, cero (before storage, set 100%)) was 100% and the “proteolytic activity before and after storage” value ([1]; 30% w/w diol, 1 day at 45° C.) was 92%. For the same compound, the “proteolytic activity before and after storage” value ([1]; 30% w/w diol, 3 days at 45° C.) was 80%, the “proteolytic activity before and after storage” value ([1]; 30% w/w diol, 7 days at 45° C.) was 62% and the “proteolytic activity before and after storage” value ([1]; 30% w/w diol, 14 days at 45° C.) was 47%. The “proteolytic activity before and after storage” value ([1]; 30% w/w diol, cero (before storage, set 100%)) was 100%, the “proteolytic activity before and after storage” value ([1]; 50% w/w diol, 1 day at 45° C.) was 94% and the “proteolytic activity before and after storage” value ([1]; 50% w/w diol, 3 days at 45° C.) was 92%. The “proteolytic activity before and after storage” value ([1]; 50% w/w diol, 7 days at 45° C.) was 79%, the “proteolytic activity before and after storage” value ([1]; 50% w/w diol, 14 days at 45° C.) was 66% and the “proteolytic activity before and after storage” value ([1]; 50% w/w diol, cero (before storage, set 100%)) was 100%. The “stabilization of protease by diol alone during storage (in words)” value [1] was “stabilize the protease increasingly”, the protease activity [2] was 91% and the protease activity ([3]; 135 mM diol with 137 μM BBA) was 40%. The protease activity ([3]; 135 mM diol, without BBA) was 94% and the protease activity ([4]; Propane-1,2-diol 120 mM, Pentane-1,2-diol 0 mM, 4.4 μM 4-FPBA, 4-FPBA only = 100%) was 91%.

`OCCO` [Ethylen-1,2-glycol, ethane-1,2-diol] gave a protease activity [2] of 54%, a protease activity ([3]; 135 mM diol with 137 μM BBA) of 43% and a protease activity ([3]; 135 mM diol, without BBA) of 97%.

benzene boronic acid [BBA] showed a protease activity ([3]; 137 μM BBA, no diol) of 66%.

In the case of `CCCC(O)CO` (centres unmarked) [Pentane-1,2-diol, pentane-1,2-diol], the “stabilization of protease by diol alone during storage (in words)” value [1] is reported as “does not stabilize the protease, but rather destabilizes the protease”, the “inhibitory effect towards proteolytic activity (in words)” value ([2]; diol added to 4-FPBA, compared to the other diols used) is reported as “strong inhibitory effect” and the “stabilization of protease by diol in the presence of BBA (in words)” value ([3]; 135 mM diol with 137 μM BBA) is reported as “best increasing effect on stabilization of protease; also recorded: synergistic stabilization”. The “inhibitory effect towards proteolytic activity (in words)” value ([3]; diol alone (135 mM, without BBA), of the diols tested) was “best inhibitory effect” and the “stabilization of protease in the presence of 4-FPBA (in words)” value ([4]; of the diols tested, with 4-FPBA) was “stabilizes protease best”.
